PubChem BioAssay AID248 (DTP/NCI, 2004)
“And” between values parts separate entries of the source, which are not always exact repeats. Identical values can stand only once. Inconclusive results and toxic doses are left out. No stated cut-off is given here; in the data, active means T/C of 150% or more; inactive means T/C below 125%.

Tested on: L1210 leukemia ip in BDF1 mice, survival T/C
Experiment: NCI In Vivo Anticancer Drug Screen. Data for tumor model L1210 Leukemia (intraperitoneal) in B6D2F1 (BDF1) mice
Conditions: endpoint: mean survival time, higher = longer survival
How it was run: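 Tumor was transplanted into mice, which were then dosed with test compound or vehicle alone. Survival was recorded for each group, and the treated figure was expressed relative to the control figure.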

[1] = dose: 100.0 mg/kg/injection, schedule: Q04DX002 (ip), vehicle: Klucel (hydroxypropylcellulose) (HPC)
[2] = dose: 200.0 mg/kg/injection, schedule: Q04DX002 (ip), vehicle: Klucel (hydroxypropylcellulose) (HPC)
[3] = dose: 400.0 mg/kg/injection, schedule: Q04DX002 (ip), vehicle: Klucel (hydroxypropylcellulose) (HPC)
[4] = dose: 100.0 mg/kg/injection, schedule: Q01DX001 (ip), vehicle: saline
[5] = dose: 200.0 mg/kg/injection, schedule: Q01DX001 (ip), vehicle: saline
[6] = dose: 400.0 mg/kg/injection, schedule: Q01DX001 (ip), vehicle: saline
[7] = dose: 100.0 mg/kg/injection, schedule: Q01DX009 (ip), vehicle: Klucel (hydroxypropylcellulose) (HPC)
[8] = dose: 100.0 mg/kg/injection, schedule: Q04DX003 (ip), vehicle: Klucel (hydroxypropylcellulose) (HPC)
[9] = dose: 200.0 mg/kg/injection, schedule: Q01DX009 (ip), vehicle: Klucel (hydroxypropylcellulose) (HPC)
[10] = dose: 200.0 mg/kg/injection, schedule: Q04DX003 (ip), vehicle: Klucel (hydroxypropylcellulose) (HPC)
[11] = dose: 400.0 mg/kg/injection, schedule: Q01DX009 (ip), vehicle: Klucel (hydroxypropylcellulose) (HPC)
[12] = dose: 400.0 mg/kg/injection, schedule: Q04DX003 (ip), vehicle: Klucel (hydroxypropylcellulose) (HPC)
[13] = dose: 100.0 mg/kg/injection, schedule: Q04DX003 (ip), vehicle: saline with Tween-80
[14] = dose: 200.0 mg/kg/injection, schedule: Q04DX003 (ip), vehicle: saline with Tween-80
[15] = dose: 400.0 mg/kg/injection, schedule: Q04DX003 (ip), vehicle: saline with Tween-80
[16] = dose: 100.0 mg/kg/injection, schedule: Q04DX003 (ip), vehicle: saline
[17] = dose: 200.0 mg/kg/injection, schedule: Q04DX003 (ip), vehicle: saline
[18] = dose: 100.0 mg/kg/injection, schedule: Q01DX001 (ip), vehicle: Klucel (hydroxypropylcellulose) (HPC)
[19] = dose: 200.0 mg/kg/injection, schedule: Q01DX001 (ip), vehicle: Klucel (hydroxypropylcellulose) (HPC)
[20] = dose: 400.0 mg/kg/injection, schedule: Q01DX001 (ip), vehicle: Klucel (hydroxypropylcellulose) (HPC)
[21] = dose: 100.0 mg/kg/injection, schedule: Q01DX009 (ip), vehicle: saline with Tween-80
[22] = dose: 200.0 mg/kg/injection, schedule: Q01DX009 (ip), vehicle: saline with Tween-80
[23] = dose: 400.0 mg/kg/injection, schedule: Q01DX009 (ip), vehicle: saline with Tween-80
[24] = dose: 100.0 mg/kg/injection, schedule: Q04DX002 (ip), vehicle: saline with Tween-80
[25] = dose: 200.0 mg/kg/injection, schedule: Q04DX002 (ip), vehicle: saline with Tween-80
[26] = dose: 400.0 mg/kg/injection, schedule: Q04DX002 (ip), vehicle: saline with Tween-80

Measured: T/C

COc1ccc(/C=N\NC(=O)c2ccncc2)cc1
inactive: dose: 50.0 mg/kg/injection, schedule: Q04DX002 (ip), vehicle: Klucel (hydroxypropylcellulose) (HPC) 109 % of control | [1] 113 % of control | [2] 106 % of control | [3] 118 % of control

O=C(O)c1c(Cl)cccc1[N+](=O)[O-]
inactive: [4] 100 % of control | [5] 96 % of control | [6] 102 % of control

ClC(Cl)(Cl)C(Nc1ccccc1)Nc1ccccc1
inactive: [7] 87 % of control | [8] 94 % of control | [9] 96 % of control | [10] 90 % of control | [11] 91 % of control | [12] 92 % of control

Nc1ccc(C(=O)Oc2ccc([N+](=O)[O-])cc2)cc1
inactive: [13] 98 % of control | [14] 88 % of control | [15] 86 % of control

CN(C)CCC(O)c1ccc(Cl)cc1 (stereo not given)
inactive: [16] 102 % of control | [17] 98 % of control

O=C(O)/C=C\c1cn(C2OC(CO)C(O)C(O)C2O)c2ccccc12 (stereo not given)
inactive: dose: 60.0 mg/kg/injection, schedule: Q01DX001 (ip), vehicle: sodium bicarbonate 105 % of control | dose: 120.0 mg/kg/injection, schedule: Q01DX001 (ip), vehicle: sodium bicarbonate 97 % of control

NCCNc1ncnc2c1ncn2C1OC(CO)C(O)C1O (stereo not given)
inactive: dose: 6.25 mg/kg/injection, schedule: Q01DX009 (ip), vehicle: saline 115 % of control | dose: 12.5 mg/kg/injection, schedule: Q01DX005 (ip), vehicle: saline 101 % of control | dose: 12.5 mg/kg/injection, schedule: Q01DX009 (ip), vehicle: saline 111 % of control | dose: 25.0 mg/kg/injection, schedule: Q01DX005 (ip), vehicle: saline 100 % of control | dose: 25.0 mg/kg/injection, schedule: Q01DX009 (ip), vehicle: saline 117 % of control | dose: 50.0 mg/kg/injection, schedule: Q01DX005 (ip), vehicle: saline 97 % of control | dose: 100.0 mg/kg/injection, schedule: Q01DX005 (ip), vehicle: saline 86 % of control

Cn1c(N)c(N=Cc2ccncc2)c(=O)n(C)c1=O
inactive: dose: 50.0 mg/kg/injection, schedule: Q01DX001 (ip), vehicle: other 103 % of control | dose: 100.0 mg/kg/injection, schedule: Q01DX001 (ip), vehicle: other 92 % of control | dose: 200.0 mg/kg/injection, schedule: Q01DX001 (ip), vehicle: other 94 % of control | dose: 400.0 mg/kg/injection, schedule: Q01DX001 (ip), vehicle: other 97 % of control

Cc1ccc(C(C)C)c(OC(=O)Nc2ccc(Cl)cc2)c1
inactive: [18] 95 % of control | [7] 96 % of control and 103 % of control | [1] 98 % of control and 102 % of control | [8] 100 % of control and 120 % of control | [19] 88 % of control | [9] 98 % of control and 100 % of control | [2] 102 % of control | [10] 104 % of control and 124 % of control | [20] 88 % of control | [11] 96 % of control and 91 % of control | [3] 94 % of control and 98 % of control | [12] 96 % of control

Cc1c(Cl)cccc1NC(=O)Oc1ccc(Cl)cc1
inactive: [21] 92 % of control | [13] 93 % of control | [22] 87 % of control | [14] 97 % of control | [23] 87 % of control | [15] 102 % of control

O=C(/C=C/c1ccccc1)NC(=S)NC1CCCCC1
inactive: dose: 50.0 mg/kg/injection, schedule: Q01DX009 (ip), vehicle: carboxymethylcellulose (CMC) 101 % of control and 102 % of control | dose: 50.0 mg/kg/injection, schedule: Q04DX003 (ip), vehicle: carboxymethylcellulose (CMC) 103 % of control | dose: 100.0 mg/kg/injection, schedule: Q01DX009 (ip), vehicle: carboxymethylcellulose (CMC) 97 % of control and 90 % of control | dose: 100.0 mg/kg/injection, schedule: Q04DX002 (ip), vehicle: carboxymethylcellulose (CMC) 100 % of control and 106 % of control | dose: 100.0 mg/kg/injection, schedule: Q04DX003 (ip), vehicle: carboxymethylcellulose (CMC) 96 % of control | dose: 200.0 mg/kg/injection, schedule: Q01DX009 (ip), vehicle: carboxymethylcellulose (CMC) 93 % of control and 91 % of control | dose: 200.0 mg/kg/injection, schedule: Q04DX002 (ip), vehicle: carboxymethylcellulose (CMC) 103 % of control and 91 % of control | dose: 200.0 mg/kg/injection, schedule: Q04DX003 (ip), vehicle: carboxymethylcellulose (CMC) 96 % of control | dose: 400.0 mg/kg/injection, schedule: Q04DX002 (ip), vehicle: carboxymethylcellulose (CMC) 87 % of control

CC(C)(C)C(=O)[CH-]C(=O)C(C)(C)C.CC(C)(C)C(=O)[CH-]C(=O)C(C)(C)C.CC(C)(C)C(=O)[CH-]C(=O)C(C)(C)C.[Er+3]
inactive: dose: 50.0 mg/kg/injection, schedule: Q04DX002 (ip), vehicle: saline with Tween-80 90 % of control | [24] 90 % of control | [25] 90 % of control | [26] 90 % of control

c1ccc2c(c1)ccc1c3c(oc12)CCCC3
inactive: [4] 116 % of control | [5] 103 % of control | [6] 105 % of control

O=C(O)c1ccc(F)cc1O
inactive: [4] 97 % of control | [5] 109 % of control

Cc1cccc2c(Br)cccc12
inactive: dose: 100.0 mg/kg/injection, schedule: Q01DX001 (ip), vehicle: carboxymethylcellulose (CMC) 97 % of control | dose: 200.0 mg/kg/injection, schedule: Q01DX001 (ip), vehicle: carboxymethylcellulose (CMC) 95 % of control | dose: 400.0 mg/kg/injection, schedule: Q01DX001 (ip), vehicle: carboxymethylcellulose (CMC) 93 % of control

Cc1cccc(NC(=O)OC/C=C/c2ccccc2)c1
inactive: dose: 100.0 mg/kg/injection, schedule: Q01DX001 (ip), vehicle: saline with Tween-80 114 % of control | [21] 102 % of control and 103 % of control | [24] 105 % of control and 108 % of control | [13] 86 % of control | dose: 200.0 mg/kg/injection, schedule: Q01DX001 (ip), vehicle: saline with Tween-80 103 % of control | [22] 95 % of control and 96 % of control | [25] 95 % of control and 105 % of control | [14] 90 % of control | dose: 400.0 mg/kg/injection, schedule: Q01DX001 (ip), vehicle: saline with Tween-80 97 % of control | [23] 90 % of control | [26] 95 % of control and 105 % of control | [15] 86 % of control

O=C(Nc1ccccc1F)Oc1ccc(F)cc1
inactive: [18] 97 % of control | [7] 102 % of control and 91 % of control | [1] 101 % of control and 89 % of control | [19] 97 % of control | [9] 98 % of control and 109 % of control | [2] 96 % of control and 98 % of control | [20] 96 % of control | [11] 98 % of control and 107 % of control | [3] 101 % of control and 104 % of control

FC(F)=C(F)I
inactive: dose: 50.0 mg/kg/injection, schedule: Q01DX005 (ip), vehicle: other 102 % of control | dose: 100.0 mg/kg/injection, schedule: Q01DX005 (ip), vehicle: other 87 % of control | dose: 100.0 mg/kg/injection, schedule: Q04DX002 (ip), vehicle: other 98 % of control | dose: 200.0 mg/kg/injection, schedule: Q01DX005 (ip), vehicle: other 94 % of control | dose: 200.0 mg/kg/injection, schedule: Q04DX002 (ip), vehicle: other 104 % of control

CC(N)C(C)O (stereo not given)
inactive: [16] 96 % of control | [17] 101 % of control | dose: 400.0 mg/kg/injection, schedule: Q04DX003 (ip), vehicle: saline 101 % of control
